Drawing on patent publication US20230096028A1, “BICYCLIC HETEROCYCLYL COMPOUNDS AND USES THEREOF” (Revolution Medicines, Inc., priority 2019, published 2023), this text covers Kd and IC50 for 28 compounds.

Usually pKd stands for the negative decadic logarithm of the Kd, by convention in mol/L. As usually defined, the pIC50 is the negative decadic logarithm of the IC50, by convention in mol/L.

pIC50, pKd: −log10 of the molar value. Where two headings read alike, the source gives them in different places.

For assay [1], the target named is T1, SOS1 catalytic domain (residues 564-1049) (Homo sapiens, UniProt Q07889).
T1 sequence (Q07889 564-1049): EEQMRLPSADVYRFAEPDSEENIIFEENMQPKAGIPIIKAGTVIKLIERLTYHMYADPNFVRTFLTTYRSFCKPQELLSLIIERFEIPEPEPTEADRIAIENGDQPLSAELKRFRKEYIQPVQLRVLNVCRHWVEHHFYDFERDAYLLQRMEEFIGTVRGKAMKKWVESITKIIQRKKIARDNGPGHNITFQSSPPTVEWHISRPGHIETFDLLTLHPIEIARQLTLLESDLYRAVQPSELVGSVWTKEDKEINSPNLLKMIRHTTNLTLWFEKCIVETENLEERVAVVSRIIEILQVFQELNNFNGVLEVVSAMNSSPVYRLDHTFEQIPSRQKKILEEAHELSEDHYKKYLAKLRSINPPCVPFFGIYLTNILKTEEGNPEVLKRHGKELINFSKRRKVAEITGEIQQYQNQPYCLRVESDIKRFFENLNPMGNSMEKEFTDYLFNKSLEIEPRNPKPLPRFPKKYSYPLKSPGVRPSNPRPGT
The assay can be described thus: Potency Assay: binding affinity to SOS1 using Surface Plasmon Resonance (SPR). The conditions noted are these: immobilized SOS1 catalytic domain (residues 564-1049), read-out: SOS1 SPR Equilibrium Kd. Details: SOS1 catalytic domain (residues 564-1049) immobilized on a sensor chip. In outline:
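Kd was obtained by plotting binding response, taken just before association ended, versus compound concentration on a Biacore 8K. Compounds flowed at 50 μL/min over streptavidin-captured avi-SOS1 catalytic domain (~6000 RU), followed by buffer dissociation; HEPES 0.01 M/NaCl 0.15 M/0.05% P20 buffer, double-referenced.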

Assay [2] deals with T1, SOS1 catalytic domain (residues 564-1049). The assay can be described thus: Mode of Action Assay: inhibition of SOS1 nucleotide exchange activity (SOS1 TR-FRET IC50 Assay). In general terms: In TR-FRET formats the signal depends on donor and acceptor labels being close together.
The test system of assay [3] is PC-9 cells (EGFR Ex19Del). The assay can be described thus: Potency Assay: pERK (SOS1 pERK IC50 Assay, AlphaLISA SureFire Ultra p-ERK1/2). Type of assay: cell-based. The note with it: Homo sapiens, read-out: SOS1 pERK IC50. In outline:
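Cellular pERK1/2 by AlphaLISA SureFire Ultra after 1 h compound exposure (37° C., highest concentration 10 μM, 3-fold steps, duplicates) of EGFR Ex19Del PC-9 cells seeded the day before. A 4-parameter fit of signal versus log concentration gives IC50.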
Background: In Alpha technology, singlet oxygen from a donor bead excites a nearby acceptor bead.

The mark [4] stands for this setting: PC-9 cells (EGFR Ex19Del), 1 hour incubation, AlphaLISA p-ERK1/2.

On to `CNc1nc2c(c(N[C@H](C)c3cccc(C(F)F)c3F)n1)CN(C(=O)N1CCOCC1)C2` [Example 505, N4-[(1R)-1-[3-(difluoromethyl)-2-fluorophenyl]ethyl]-N2-methyl-6-(morpholine-4-carbonyl)-5H,6H,7H-pyrrolo[3,4-d]pyrimidine-2,4-diamine], for which the pKd in assay [1] was < 6.40. Besides, the negative logarithm of the IC50 (pIC50) in assay [2] and in assay [3] (setting [4]) was < 6.00 throughout.

As to `C[C@@H](Nc1nc(Cl)nc2c1CN(C(=O)CC1COCCN1)C2)c1cccc(C(F)F)c1F` (stereo partly drawn) [Example 291], the negative-log Kd (pKd) in assay [1] was < 6.40. In addition, the pIC50 in assay [2] and in assay [3] (setting [4]) was > 6.00 throughout.

Consider `C[C@@H](Nc1nc(Cl)nc2c1CN(C(=O)c1ccnnc1)C2)c1cc(N)cc(C(F)(F)F)c1` [Example 78], for which, in assay [1], the negative-log Kd (pKd) was > 6.40. The negative logarithm of the IC50 (pIC50) in assay [2] and in assay [3] (setting [4]) was > 6.00 in each case.

Consider `C[C@@H](Nc1nc(Cl)nc2c1CN(C(=O)N1CCOCC1)C2)c1cccc(C(F)(F)C(C)(C)O)c1F` [Example 493], for which the negative logarithm of the Kd (pKd) in assay [1] is > 6.40. For the same compound, the negative-log IC50 (pIC50) in assay [2] and in assay [3] (setting [4]) was > 6.00 in each case.

Take `C[C@@H](Nc1nc(CO)nc2c1CN(C(=O)N1CCOCC1)C2)c1cc(N)cc(C(F)(F)F)c1` [Example 129, (4-{[(1R)-1-[3-amino-5-(trifluoromethyl)-phenyl]ethyl]amino}-6-(morpholine-4-carbonyl)-5H,6H,7H-pyrrolo[3,4-d]pyrimidin-2-yl)methanol]: in assay [1], the pKd was > 6.40. Further, the pIC50 in assay [2] and in assay [3] (setting [4]) was > 6.00 each time.

As to `C[C@@H](Nc1nc(Cl)nc2c1CN(C(=O)c1cccc(OC3CCOCC3)n1)C2)c1cc(N)cc(C(F)(F)F)c1` [Example 83], the negative logarithm of the Kd (pKd) in assay [1] was < 6.40. Besides, the results for the negative logarithm of the IC50 (pIC50) in assay [2] and in assay [3] (setting [4]) were < 6.00 and > 6.00, respectively.

In the case of `C[C@@H](Nc1nc(Cl)nc2c1CN(C(=O)[C@H]1CNCCO1)C2)c1cccc(C(F)F)c1F` [Example 307], the pKd in assay [1] is > 6.40. Also, the pIC50 in assay [2] and in assay [3] (setting [4]) was > 6.00 in each case.

As for `C[C@@H](Nc1nc(Cl)nc2c1CN(C(=O)N1C[C@H]3C[C@@H]1CN3)C2)c1cc(N)cc(C(F)(F)F)c1` [Example 360], the pKd in assay [1] was > 6.40. Besides, the figures for the negative logarithm of the IC50 (pIC50) in assay [2] and in assay [3] (setting [4]) were > 6.00 and < 6.00, respectively.

For `C[C@@H](Nc1nc(Cl)nc2c1CN(S(=O)(=O)N1CCNCC1)CC2)c1cc(N)cc(C(F)(F)F)c1` [Example 183], the pKd in assay [1] was > 6.40. In addition, the pIC50 in assay [2] and in assay [3] (setting [4]) was > 6.00 in each case.

As to `C[C@@H](Nc1nc(Cl)nc2c1CN(S(=O)(=O)C1CCOC1)CC2)c1cc(N)cc(C(F)(F)F)c1` (stereo partly drawn) [Example 449], the pKd in assay [1] is > 6.40. Moreover, the pIC50 in assay [2] and in assay [3] (setting [4]) was > 6.00 each time.

In the case of `C[C@@H](Nc1nc(Cl)nc2c1CN(C(=O)N1CCNCC1)C2)c1cc(N)cc(C(F)(F)F)c1` [Example 356], in assay [1], the negative logarithm of the Kd (pKd) is > 6.40. In addition, the negative logarithm of the IC50 (pIC50) in assay [2] and in assay [3] (setting [4]) was > 6.00 in each case.

For `C[C@@H](Nc1nc(Cl)nc2c1CN(C(=O)N1CCOCC1)C2)c1cccc(C(C)(C)C#N)c1` [Example 482, 2-{3-[(1R)-1-{[2-chloro-6-(morpholine-4-carbonyl)-5H,6H,7H-pyrrolo[3,4-d]pyrimidin-4-yl]amino}ethyl]phenyl}-2-methylpropanenitrile], in assay [1], the pKd is < 6.40. The pIC50 in assay [2] was > 6.00; in assay [3] (PC-9, 1 h) it was < 6.00.

`C[C@@H](Nc1nc(Cl)nc2c1CN(C(=O)c1cc(N3CCOCC3)ccn1)CC2)c1cc(N)cc(C(F)(F)F)c1` [Example 238]: the negative logarithm of the Kd (pKd) in assay [1] is < 6.40. The negative logarithm of the IC50 (pIC50) in assay [2] and in assay [3] (setting [4]) was < 6.00 throughout.

Take `C[C@@H](Nc1nc(Cl)nc2c1CN(C(=O)N1CCOCC1)C2)c1cccc(C(F)(F)C2COCCN2)c1` (stereo partly drawn) [Example 538, (2-chloro-4-(((1R)-1-(3-(difluoro(morpholin-3-yl)methyl)phenyl)ethyl)amino)-5,7-dihydro-6H-pyrrolo[3,4-d]pyrimidin-6-yl)(morpholino)methanone]: the pKd in assay [1] was > 6.40. In addition, the pIC50 in assay [2] was > 6.00; in assay [3] (setting [4]) it was < 6.00.

Consider `C[C@@H](Nc1nc(Cl)nc2c1CN(C(=O)C1(CO)COC1)CC2)c1cc(N)cc(C(F)(F)F)c1` [Example 225], for which the negative-log Kd (pKd) in assay [1] was > 6.40. In addition, the pIC50 in assay [2] and in assay [3] (setting [4]) was > 6.00 each time.

`C[C@@H](Nc1nc(Cl)nc2c1CN(C(=O)N1C3CC1CN(C1COC1)C3)C2)c1cccc(C(F)F)c1F` [Example 422]: the negative-log Kd (pKd) in assay [1] is > 6.40. Further, the negative logarithm of the IC50 (pIC50) in assay [2] and in assay [3] (setting [4]) was > 6.00 in each case.

Consider `C[C@@H](Nc1nc(Cl)nc2c1CN(C(=O)N1CCOCC1)C2)c1cccc(C(F)(F)C2CNCCO2)c1` (stereo partly drawn) [Example 484, 2-chloro-N-[(1R)-1-{3-[difluoro(morpholin-2-yl)methyl]phenyl}ethyl]-6-(morpholine-4-carbonyl)-5H,6H,7H-pyrrolo[3,4-d]pyrimidin-4-amine], for which the pKd in assay [1] was > 6.40. The negative logarithm of the IC50 (pIC50) in assay [2] was > 6.00; in assay [3] (PC-9, 1 h), > 6.00.

For the compound `Cc1nc2c(c(N[C@H](C)c3cc(N)cc(C(F)(F)F)c3)n1)CN(C(=O)C1CCOCC1)C2` [Example 119, N-[(1R)-1-[3-amino-5-(trifluoromethyl)phenyl]ethyl]-2-methyl-6-(oxane-4-carbonyl)-5H,6H,7H-pyrrolo[3,4-d]pyrimidin-4-amine], the pKd in assay [1] is > 6.40. Further, the figures for the negative logarithm of the IC50 (pIC50) in assay [2] and in assay [3] (setting [4]) were > 6.00 and < 6.00, respectively.

As for `C[C@@H](Nc1nc(Cl)nc2c1CN(C(=O)N1CCOCC1)C2)c1cccc(C(F)(F)COC2COC2)c1` [Example 479, 2-chloro-N-[(1R)-1-{3-[1,1-difluoro-2-(oxetan-3-yloxy)ethyl]phenyl}ethyl]-6-(morpholine-4-carbonyl)-5H,6H,7H-pyrrolo[3,4-d]pyrimidin-4-amine], in assay [1], the negative-log Kd (pKd) was > 6.40. In addition, the pIC50 in assay [2] and in assay [3] (setting [4]) was > 6.00 throughout.

Take `C[C@@H](Nc1nc(CN2CCOCC2)nc2c1CN(C(=O)N1CCOCC1)C2)c1cc(N)cc(C(F)(F)F)c1` [Example 504, N-[(1R)-1-[3-amino-5-(trifluoromethyl)phenyl]ethyl]-2-[(morpholin-4-yl)-methyl]-6-(morpholine-4-carbonyl)-5H,6H,7H-pyrrolo[3,4-d]pyrimidin-4-amine]: the pKd in assay [1] was < 6.40. In addition, the pIC50 in assay [2] is > 6.00; in assay [3] (setting [4]) it was < 6.00.

Consider `C[C@@H](Nc1nc(Cl)nc2c1CN(C(=O)N1CCOCC1)C2)c1cccc(C(F)(F)F)c1F` [Example 496], for which the negative logarithm of the Kd (pKd) in assay [1] is < 6.40. The negative logarithm of the IC50 (pIC50) in assay [2] and in assay [3] (setting [4]) was > 6.00 throughout.

Turning to `C[C@@H](Nc1nc(Cl)nc2c1CN(C(=O)N1CCOCC1)C2)c1cccc(C(F)F)c1Br` [Example 528, N-[(1R)-1-[2-bromo-3-(difluoromethyl)phenyl]ethyl]-2-chloro-6-(morpholine-4-carbonyl)-5H,6H,7H-pyrrolo[3,4-d]pyrimidin-4-amine], in assay [1], the negative-log Kd (pKd) was < 6.40. In addition, the pIC50 is > 6.00 in assay [2] and > 6.00 in assay [3] (PC-9, 1 h).

As to `C[C@@H](Nc1nc(Cl)nc2c1CN(C(=O)c1nccnn1)CC2)c1cc(N)cc(C(F)(F)F)c1` [Example 248], in assay [1], the negative logarithm of the Kd (pKd) was < 6.40. Also, the pIC50 in assay [2] and in assay [3] (setting [4]) was < 6.00 each time.

`COC1(C(=O)N2Cc3nc(Cl)nc(N[C@H](C)c4cccc(C(F)F)c4F)c3C2)CNC1` [Example 302]: in assay [1], the negative logarithm of the Kd (pKd) was > 6.40. In addition, the pIC50 in assay [2] and in assay [3] (setting [4]) was > 6.00 throughout.

Turning to `C[C@@H](Nc1nc(Cl)nc2c1CN(C(=O)c1cnc3[nH]ccc3c1)C2)c1cc(N)cc(C(F)(F)F)c1` [Example 91], the pKd in assay [1] is < 6.40. For the same compound, the negative-log IC50 (pIC50) in assay [2] is < 6.00; in assay [3] (setting [4]), > 6.00.

As for `C[C@@H](Nc1nc(Cl)nc2c1CN(C(=O)N1CCOCC1)C2)c1cccc(C(F)F)c1` [Example 486, 2-chloro-N-[(1R)-1-[3-(difluoromethyl)phenyl]ethyl]-6-(morpholine-4-carbonyl)-5H,6H,7H-pyrrolo[3,4-d]pyrimidin-4-amine], in assay [1], the pKd is > 6.40. The pIC50 in assay [2] is > 6.00; in assay [3] (setting [4]) it was < 6.00.

`COC(C(=O)N1Cc2nc(Cl)nc(N[C@H](C)c3cc(N)cc(C(F)(F)F)c3)c2C1)C1CCOC1` (stereo partly drawn) [Example 259]: the pKd in assay [1] is > 6.40. In addition, the pIC50 in assay [2] and in assay [3] (setting [4]) was > 6.00 each time.

On to `C[C@@H](Nc1nc(Cl)nc2c1CN(C(=O)c1csc(C3CCNCC3)n1)C2)c1cc(N)cc(C(F)(F)F)c1` [Example 92], for which the pKd in assay [1] is > 6.40. Moreover, the pIC50 in assay [2] and in assay [3] (setting [4]) was < 6.00 throughout.
